Here are results for one compound from patent publication US12673044B2, “Methods of treating borderline personality disorder” (ORYZON GENOMICS, S.A., priority 2019, dated 2026).

Data set [1] has as its system BPD patients. Put plainly: Phase IIa REIMAGINE trial, BPD cohort: efficacy by Borderline Personality Disorder Checklist (BPDCL). Format: in vivo, human. The conditions noted are these: 5 BPD patients, 1.2 mg/day oral free base, 5 days on/2 days off, 8 weeks, paired one-tail t-test. The text has this:
(§1) As part of a Phase IIa clinical trial (REIMAGINE trial, EudraCT number 2018-002140-88) to evaluate the safety, tolerability and efficacy of the KDM1A inhibitor vafidemstat to treat aggression in adult population in patients with different CNS disorders, a cohort of BPD patients was recruited and treated with vafidemstat for 8 weeks. A summary of the protocol of this clinical trial and results obtained in the BPD cohort are provided below.
(§2) Reimagine is a unicenter, open-label, 1-arm, 8-week clinical study to evaluate the efficacy, safety and tolerability of vafidemstat in aggression in adult population with Alzheimer's Disease (AD), Lewy Body Dementia (LBD), Adult attention Deficit Hyperactivity Disorder (ADHD), Borderline Personality Disorder (BPD) and Autism Spectrum Disorder (ASD). Six patients to be recruited per disorder.
Treatment: All patients received vafidemstat (as free base) at a dose of 1.2 mg/day, administered orally as a single capsule, in a 5 days on/2 days off schedule, during 8 weeks.
Six BPD patients were recruited, but there was one drop-out, and therefore the results as described herein correspond to the 5 BPD subjects eligible for analysis. A summary of the patients recruited in this BPD cohort (demographic data at baseline) can be found in Table 1.
Assessment of efficacy of treatment in BPD patients was performed using a validated scale specific for BPD, the Borderline Personality Disorder Checklist (BPDCL). The BPDCL is an instrument specifically designed to evaluate the subjective burden of BPD in the last month and also to rate BPD changes after therapeutic intervention. Originally developed in Dutch, the BPDCL has been subsequently translated into English, Spanish and other languages, and has been applied to clinical and non-clinical samples. […]
One can use the total sum score on the BPDCL (BPDCL Total Score) as an overall index of the subjective burden caused by BPD symptoms, or one can use sum scores for one or more of the separate BPD domains. […] Efficacy assessments were always measured prior to treatment administration on the corresponding visit day. […]

The subject of data set [2] is BPD patients. Put plainly: Phase IIa REIMAGINE trial, BPD cohort: safety and tolerability. Format: in vivo, human. The note with it: 1.2 mg/day oral free base, 5 days on/2 days off, 8 weeks; without significant adverse events.
Text: as §1, §2
Main objective of the trial: To evaluate the safety and tolerability of vafidemstat in adult population with Alzheimer's Disease (AD), Lewy Body Dementia (LBD), Adult attention deficit hyperactivity disorder (ADHD), Borderline Personality Disorder (BPD), Autism Spectrum Disorder (ASD)
Treatment: All patients received vafidemstat (as free base) at a dose of 1.2 mg/day, administered orally as a single capsule, in a 5 days on/2 days off schedule, during 8 weeks. […]

SMILES strings stand for the structures.

For `Nc1nnc(CN[C@@H]2C[C@H]2c2ccc(OCc3ccccc3)cc2)o1` [vafidemstat, 5-((((1R,2S)-2-(4-(benzyloxy)phenyl)cyclopropyl)amino)methyl)-1,3,4-oxadiazol-2-amine], the “Aggression-related BPDCL domains combined score (anger control, impulsivity, (para)suicide), change from visit 1 (baseline) to visit 7” value in the data set on BPD patients [1] (p=0.0029, FIG. 1) is listed as “statistically significant reduction”. Also, in the data set with BPD patients [1] (p=0.0048, FIG. 2), the “BPDCL Total score, change from visit 1 (baseline) to visit 7” value is given as “statistically significant reduction”. For the same compound, the “Non-aggression-related BPDCL domains combined score (abandonment, relationships, identity disturbance, affective instability, emptiness, dissociation), change from visit 1 (baseline) to visit 7” value in the data set with BPD patients [1] (p=0.0234, FIG. 3) is recorded as “statistically significant reduction”. Besides, in the data set on BPD patients [2], the “Safety and tolerability of treatment in BPD patients” value was “safe and well tolerated”.
